Reference: PubChem BioAssay (NCI)
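Exposure lasted 48 hours, with cells grown in 96-well plates and compounds tested at five concentrations. At the TGI there is no net growth.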

What was measured:
Assay in all cases: growth of human tumour cells (NCI), 48 h
[1] = system: A498 renal
[2] = system: A549 NSCLC
[3] = system: ACHN renal
[4] = system: CAKI-1 renal
[5] = system: CCRF-CEM leukemia
[6] = system: COLO 205 colon
[7] = system: DU-145 prostate
[8] = system: EKVX NSCLC
[9] = system: HCC-2998 colon
[10] = system: HCT-15 colon
[11] = system: HL-60(TB) leukemia
[12] = system: HOP-62 NSCLC
[13] = system: HOP-92 NSCLC
[14] = system: HT29 colon
[15] = system: IGROV1 ovarian
[16] = system: K-562 leukemia
[17] = system: LOX IMVI melanoma
[18] = system: M14 melanoma
[19] = system: MCF7 breast
[20] = system: MDA-MB-231 breast
[21] = system: MDA-MB-435
[22] = system: MDA-N
[23] = system: MOLT-4 leukemia
[24] = system: NCI-H226 lung
[25] = system: NCI-H23 lung
[26] = system: NCI-H460 lung
[27] = system: NCI/ADR-RES ovarian
[28] = system: OVCAR-3 ovarian
[29] = system: OVCAR-4 ovarian
[30] = system: OVCAR-5 ovarian
[31] = system: OVCAR-8 ovarian
[32] = system: PC-3 prostate
[33] = system: RPMI-8226 leukemia
[34] = system: RXF 393 renal
[35] = system: SF-295 CNS
[36] = system: SK-MEL-2 melanoma
[37] = system: SK-MEL-28 melanoma
[38] = system: SK-MEL-5 melanoma
[39] = system: SK-OV-3 ovarian
[40] = system: SNB-19 CNS
[41] = system: SR leukemia
[42] = system: SW-620 colon
[43] = system: T-47D breast
[44] = system: TK-10 renal
[45] = system: U251 CNS
[46] = system: UACC-257 melanoma
[47] = system: UACC-62 melanoma
[48] = system: UO-31 renal
[49] = system: 786-0 renal
[50] = system: BT-549 breast
[51] = system: HCT-116 colon
[52] = system: KM12 colon
[53] = system: MALME-3M melanoma
[54] = system: SF-268 CNS
[55] = system: SF-539 CNS
[56] = system: SN12C renal
[57] = system: SNB-75 CNS

Which results are given for `COc1ccc2c(c1)CC[C@@H]1[C@@H]2CC[C@]2(C)C(=O)/C(=C/c3ccc(O)c(OC)c3)C[C@@H]12`?
TGI [1]: > 100 µM; TGI [2]: > 100 µM; TGI [3]: > 100 µM; TGI [4]: > 100 µM; TGI [5]: > 100 µM; TGI [6]: > 100 µM; TGI [7]: > 100 µM; TGI [8]: > 100 µM; TGI [9]: 75.5 µM; TGI [10]: 72.6 µM; TGI [11]: > 100 µM; TGI [12]: > 100 µM; TGI [13]: > 100 µM; TGI [14]: > 100 µM; TGI [15]: > 100 µM; TGI [16]: > 100 µM; TGI [17]: > 100 µM; TGI [18]: > 100 µM; TGI [19]: > 100 µM; TGI [20]: > 100 µM; TGI [21]: > 100 µM; TGI [22]: > 100 µM; TGI [23]: 92.1 µM; TGI [24]: > 100 µM; TGI [25]: > 100 µM; TGI [26]: > 100 µM; TGI [27]: > 100 µM; TGI [28]: > 100 µM; TGI [29]: > 100 µM; TGI [30]: > 100 µM; TGI [31]: > 100 µM; TGI [32]: > 100 µM; TGI [33]: > 100 µM; TGI [34]: > 100 µM; TGI [35]: > 100 µM; TGI [36]: > 100 µM; TGI [37]: > 100 µM; TGI [38]: > 100 µM; TGI [39]: > 100 µM; TGI [40]: > 100 µM; TGI [41]: > 100 µM; TGI [42]: > 100 µM; TGI [43]: > 100 µM; TGI [44]: > 100 µM; TGI [45]: > 100 µM; TGI [46]: > 100 µM; TGI [47]: > 100 µM; TGI [48]: > 100 µM

What does the source list for `CN(C)Cc1cc(/C=C/C(=O)c2ccc(Cl)c(Cl)c2)cc(CN(C)C)c1O`?
TGI [49]: 21.3 µM; TGI [1]: 32.4 µM; TGI [2]: 36.8 µM; TGI [3]: 25.4 µM; TGI [50]: 22.2 µM; TGI [4]: 21.1 µM; TGI [5]: 16.9 µM; TGI [6]: 32.5 µM; TGI [7]: 27.1 µM; TGI [8]: 30.1 µM; TGI [9]: 19.3 µM; TGI [51]: 26.1 µM; TGI [11]: > 100 µM; TGI [12]: 38 µM; TGI [14]: 28.6 µM; TGI [15]: 25.3 µM; TGI [16]: 91.2 µM; TGI [52]: 26.3 µM; TGI [18]: 33.3 µM; TGI [53]: 22.7 µM; TGI [19]: 31.7 µM; TGI [20]: 21.8 µM; TGI [21]: 23.3 µM; TGI [22]: 29.8 µM; TGI [23]: 32.3 µM; TGI [26]: 22.7 µM; TGI [27]: 50.6 µM; TGI [28]: 23.8 µM; TGI [30]: 28.3 µM; TGI [31]: 32.8 µM; TGI [32]: 28.2 µM; TGI [33]: 36.8 µM; TGI [34]: 28.4 µM; TGI [54]: 23.7 µM; TGI [35]: 36.1 µM; TGI [55]: 20.3 µM; TGI [36]: 31 µM; TGI [37]: 26.9 µM; TGI [38]: 28.1 µM; TGI [39]: 36.9 µM; TGI [56]: 30.2 µM; TGI [40]: 32.5 µM; TGI [57]: 21.1 µM; TGI [42]: 30.1 µM; TGI [43]: 24.1 µM; TGI [44]: 25.6 µM; TGI [46]: 25.8 µM; TGI [47]: 27.4 µM; TGI [48]: 19.6 µM
